Assay results: the kinase profiling compilation of Christmann-Franck et al. (2016)

Columns and labels:
Assay in all cases: radiometric filter-binding kinase assay, Kinase HotSpot
Conditions in all cases: compound 0.5 µM; ATP 10 µM
PRKG2 (human) = PRKG2 (human) (UniProt Q13237)
MAP3K9 (human) = MAP3K9 (human) (UniProt P80192)
PRKCZ (human) = PRKCZ (human) (UniProt Q05513)
ACVR1 (human) = ACVR1 (human) (UniProt Q04771)
MAP3K5 (human) = MAP3K5 (human) (UniProt Q99683)
CDK6 CCND1 (human) = CDK6 CCND1 (human) (UniProt Q00534+P24385)
CDK9 CCNK (human) = CDK9 CCNK (human) (UniProt O75909+P50750)
MAPKAPK3 (human) = MAPKAPK3 (human) (UniProt Q16644)
NEK6 (human) = NEK6 (human) (UniProt Q9HC98)
NEK7 (human) = NEK7 (human) (UniProt Q8TDX7)
Chain of NEK7 (human) (Q8TDX7 whole entry, looked up): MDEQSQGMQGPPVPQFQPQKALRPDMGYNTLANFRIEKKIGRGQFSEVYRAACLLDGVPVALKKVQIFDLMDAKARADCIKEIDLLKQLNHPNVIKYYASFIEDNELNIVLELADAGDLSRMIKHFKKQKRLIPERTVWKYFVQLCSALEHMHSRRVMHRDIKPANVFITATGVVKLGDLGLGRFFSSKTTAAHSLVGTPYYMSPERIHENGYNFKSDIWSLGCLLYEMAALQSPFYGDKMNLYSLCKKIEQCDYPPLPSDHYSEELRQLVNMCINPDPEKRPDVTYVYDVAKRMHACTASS

CDK2 CCNE1 (human) = CDK2 CCNE1 (human) (UniProt P24941+P24864)
DYRK4 (human) = DYRK4 (human) (UniProt Q9NR20)
ERBB4 (human) = ERBB4 (human) (UniProt Q15303)
TGFBR1 (human) = TGFBR1 (human) (UniProt P36897)
CAMK2G (human) = CAMK2G (human) (UniProt Q13555)
WNK3 (human) = WNK3 (human) (UniProt Q9BYP7)
Chain of WNK3 (human) (Q9BYP7 whole entry, looked up): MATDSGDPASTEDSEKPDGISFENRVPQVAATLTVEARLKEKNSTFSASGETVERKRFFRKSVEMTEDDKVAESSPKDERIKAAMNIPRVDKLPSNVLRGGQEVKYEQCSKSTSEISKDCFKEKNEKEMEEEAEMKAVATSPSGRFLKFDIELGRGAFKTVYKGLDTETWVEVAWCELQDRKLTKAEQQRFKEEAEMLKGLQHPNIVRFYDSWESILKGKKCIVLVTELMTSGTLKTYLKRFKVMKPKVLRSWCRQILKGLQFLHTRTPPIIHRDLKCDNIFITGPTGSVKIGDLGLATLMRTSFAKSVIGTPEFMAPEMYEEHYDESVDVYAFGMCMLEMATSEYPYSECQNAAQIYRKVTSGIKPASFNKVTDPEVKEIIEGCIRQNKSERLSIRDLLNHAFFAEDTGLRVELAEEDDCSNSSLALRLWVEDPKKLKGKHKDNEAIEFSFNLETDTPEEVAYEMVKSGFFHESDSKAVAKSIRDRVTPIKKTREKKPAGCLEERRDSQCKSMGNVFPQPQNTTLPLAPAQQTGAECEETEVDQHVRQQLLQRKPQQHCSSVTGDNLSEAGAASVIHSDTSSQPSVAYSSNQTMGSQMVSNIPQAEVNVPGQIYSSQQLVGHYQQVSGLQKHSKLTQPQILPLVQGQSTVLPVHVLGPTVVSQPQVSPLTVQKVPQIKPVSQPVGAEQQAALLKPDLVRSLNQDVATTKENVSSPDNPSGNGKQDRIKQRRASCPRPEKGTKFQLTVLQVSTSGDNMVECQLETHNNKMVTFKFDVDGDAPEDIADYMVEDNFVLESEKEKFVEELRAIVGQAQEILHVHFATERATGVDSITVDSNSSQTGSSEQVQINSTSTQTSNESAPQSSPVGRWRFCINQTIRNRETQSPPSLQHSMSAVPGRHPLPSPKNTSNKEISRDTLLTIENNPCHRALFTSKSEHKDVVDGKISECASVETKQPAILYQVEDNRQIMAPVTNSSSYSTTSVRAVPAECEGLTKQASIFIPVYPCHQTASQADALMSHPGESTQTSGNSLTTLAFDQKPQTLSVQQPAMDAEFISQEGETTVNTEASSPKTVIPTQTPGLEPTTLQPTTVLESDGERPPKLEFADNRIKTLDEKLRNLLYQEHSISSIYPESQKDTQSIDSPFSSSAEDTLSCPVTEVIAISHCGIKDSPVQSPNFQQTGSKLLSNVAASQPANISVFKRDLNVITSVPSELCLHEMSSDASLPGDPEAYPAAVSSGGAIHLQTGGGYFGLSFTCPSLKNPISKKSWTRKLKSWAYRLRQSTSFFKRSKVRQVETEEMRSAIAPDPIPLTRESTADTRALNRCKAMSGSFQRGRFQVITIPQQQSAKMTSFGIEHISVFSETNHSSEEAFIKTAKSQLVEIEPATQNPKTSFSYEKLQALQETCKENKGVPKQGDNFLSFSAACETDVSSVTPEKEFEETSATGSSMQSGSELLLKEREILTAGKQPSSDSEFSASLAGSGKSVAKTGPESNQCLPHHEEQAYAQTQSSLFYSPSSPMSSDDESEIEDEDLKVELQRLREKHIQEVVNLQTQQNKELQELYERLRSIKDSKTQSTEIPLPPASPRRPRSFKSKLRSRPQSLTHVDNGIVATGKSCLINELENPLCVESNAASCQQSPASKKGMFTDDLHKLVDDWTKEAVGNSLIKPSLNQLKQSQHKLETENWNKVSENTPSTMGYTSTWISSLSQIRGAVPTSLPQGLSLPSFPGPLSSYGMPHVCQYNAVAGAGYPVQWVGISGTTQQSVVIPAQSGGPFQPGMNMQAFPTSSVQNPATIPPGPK

FGFR4 (human) = FGFR4 (human) (UniProt P22455)
DYRK1B (human) = DYRK1B (human) (UniProt Q9Y463)
PDGFRA (human) = PDGFRA (human) (UniProt P16234)
TBK1 (human) = TBK1 (human) (UniProt Q9UHD2)
CSF1R (human) = CSF1R (human) (UniProt P07333)
NUAK1 (human) = NUAK1 (human) (UniProt O60285)
PLK1 (human) = PLK1 (human) (UniProt P53350)
ADRBK2 (human) = ADRBK2 (human) (UniProt P35626)
CHEK2 (human) = CHEK2 (human) (UniProt O96017)
PRKCA (human) = PRKCA (human) (UniProt P17252)
[1] = test system: PRKCQ (human), Q04759 [P330L]
NEK3 (human) = NEK3 (human) (UniProt P51956)
CDK3 CCNE1 (human) = CDK3 CCNE1 (human) (UniProt Q00526+P24864)
NEK4 (human) = NEK4 (human) (UniProt P51957)
PHKG2 (human) = PHKG2 (human) (UniProt P15735)
PTK6 (human) = PTK6 (human) (UniProt Q13882)
MAP4K2 (human) = MAP4K2 (human) (UniProt Q12851)
Chain of MAP4K2 (human) (Q12851 whole entry, looked up): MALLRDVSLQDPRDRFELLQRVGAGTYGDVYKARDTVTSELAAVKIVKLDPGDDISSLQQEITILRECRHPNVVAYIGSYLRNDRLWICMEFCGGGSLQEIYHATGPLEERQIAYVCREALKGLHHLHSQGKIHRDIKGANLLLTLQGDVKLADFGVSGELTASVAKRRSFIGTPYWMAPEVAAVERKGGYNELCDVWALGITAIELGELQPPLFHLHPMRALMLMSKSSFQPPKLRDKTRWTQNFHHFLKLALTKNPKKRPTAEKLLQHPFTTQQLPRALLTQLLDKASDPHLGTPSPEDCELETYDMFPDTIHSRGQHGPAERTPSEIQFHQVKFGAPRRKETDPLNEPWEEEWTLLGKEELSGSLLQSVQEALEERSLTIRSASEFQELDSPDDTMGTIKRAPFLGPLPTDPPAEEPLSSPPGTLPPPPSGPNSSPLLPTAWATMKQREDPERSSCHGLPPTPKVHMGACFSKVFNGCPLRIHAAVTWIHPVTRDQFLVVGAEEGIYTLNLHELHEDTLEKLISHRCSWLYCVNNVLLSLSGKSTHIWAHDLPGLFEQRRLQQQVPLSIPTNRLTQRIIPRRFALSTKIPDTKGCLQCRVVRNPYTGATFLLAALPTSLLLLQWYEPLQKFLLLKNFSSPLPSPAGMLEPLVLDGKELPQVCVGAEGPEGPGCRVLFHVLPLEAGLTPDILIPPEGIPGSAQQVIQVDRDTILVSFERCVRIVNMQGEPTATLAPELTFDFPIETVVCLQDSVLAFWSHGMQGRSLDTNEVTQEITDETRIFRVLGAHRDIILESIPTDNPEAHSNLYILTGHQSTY

TTK (human) = TTK (human) (UniProt P33981)
GSK3B (human) = GSK3B (human) (UniProt P49841)
GRK7 (human) = GRK7 (human) (UniProt Q8WTQ7)
ADRBK1 (human) = ADRBK1 (human) (UniProt P25098)
LRRK2 (human) = LRRK2 (human) (UniProt Q5S007)
EPHA8 (human) = EPHA8 (human) (UniProt P29322)
SRMS (human) = SRMS (human) (UniProt Q9H3Y6)
MAPK10 (human) = MAPK10 (human) (UniProt P53779)
PRKCB1 (human) = PRKCB1 (human) (UniProt P05771)

Chain of MAP3K5 (human) (Q99683 whole entry, looked up): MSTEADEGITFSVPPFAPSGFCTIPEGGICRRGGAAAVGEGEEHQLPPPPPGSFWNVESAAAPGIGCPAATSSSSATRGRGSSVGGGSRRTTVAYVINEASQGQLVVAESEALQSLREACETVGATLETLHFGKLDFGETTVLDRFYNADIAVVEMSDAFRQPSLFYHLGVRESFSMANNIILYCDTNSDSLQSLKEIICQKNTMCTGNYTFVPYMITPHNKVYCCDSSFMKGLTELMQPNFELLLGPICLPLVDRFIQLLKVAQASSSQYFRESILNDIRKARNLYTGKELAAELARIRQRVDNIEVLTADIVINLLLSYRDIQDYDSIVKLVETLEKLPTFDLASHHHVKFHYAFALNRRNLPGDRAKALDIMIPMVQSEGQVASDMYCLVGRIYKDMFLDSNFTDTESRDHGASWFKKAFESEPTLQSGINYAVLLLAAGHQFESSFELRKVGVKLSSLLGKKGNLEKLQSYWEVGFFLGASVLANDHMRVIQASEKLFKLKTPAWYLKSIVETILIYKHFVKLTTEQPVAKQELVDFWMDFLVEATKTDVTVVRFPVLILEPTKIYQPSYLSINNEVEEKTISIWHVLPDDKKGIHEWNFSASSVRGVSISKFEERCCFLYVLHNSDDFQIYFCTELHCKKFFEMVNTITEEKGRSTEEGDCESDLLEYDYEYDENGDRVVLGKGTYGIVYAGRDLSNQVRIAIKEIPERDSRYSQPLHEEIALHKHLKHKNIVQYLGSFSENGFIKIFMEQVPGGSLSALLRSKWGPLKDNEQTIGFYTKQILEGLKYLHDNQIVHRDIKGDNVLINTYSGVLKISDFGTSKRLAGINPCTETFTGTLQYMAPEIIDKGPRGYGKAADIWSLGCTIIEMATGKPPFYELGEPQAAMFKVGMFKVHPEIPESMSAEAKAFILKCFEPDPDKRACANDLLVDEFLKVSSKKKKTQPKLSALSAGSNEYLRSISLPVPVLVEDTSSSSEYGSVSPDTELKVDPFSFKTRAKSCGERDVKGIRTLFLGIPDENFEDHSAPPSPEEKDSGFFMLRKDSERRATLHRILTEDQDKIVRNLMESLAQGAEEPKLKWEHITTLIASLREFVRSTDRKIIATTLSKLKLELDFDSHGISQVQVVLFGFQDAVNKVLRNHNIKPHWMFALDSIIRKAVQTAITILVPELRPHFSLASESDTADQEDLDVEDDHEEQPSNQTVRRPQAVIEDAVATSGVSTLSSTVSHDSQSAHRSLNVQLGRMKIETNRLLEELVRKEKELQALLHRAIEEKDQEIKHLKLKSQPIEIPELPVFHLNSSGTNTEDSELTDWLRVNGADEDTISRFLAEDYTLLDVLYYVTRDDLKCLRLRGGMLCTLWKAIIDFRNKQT
Chain of PRKCZ (human) (Q05513 whole entry, looked up): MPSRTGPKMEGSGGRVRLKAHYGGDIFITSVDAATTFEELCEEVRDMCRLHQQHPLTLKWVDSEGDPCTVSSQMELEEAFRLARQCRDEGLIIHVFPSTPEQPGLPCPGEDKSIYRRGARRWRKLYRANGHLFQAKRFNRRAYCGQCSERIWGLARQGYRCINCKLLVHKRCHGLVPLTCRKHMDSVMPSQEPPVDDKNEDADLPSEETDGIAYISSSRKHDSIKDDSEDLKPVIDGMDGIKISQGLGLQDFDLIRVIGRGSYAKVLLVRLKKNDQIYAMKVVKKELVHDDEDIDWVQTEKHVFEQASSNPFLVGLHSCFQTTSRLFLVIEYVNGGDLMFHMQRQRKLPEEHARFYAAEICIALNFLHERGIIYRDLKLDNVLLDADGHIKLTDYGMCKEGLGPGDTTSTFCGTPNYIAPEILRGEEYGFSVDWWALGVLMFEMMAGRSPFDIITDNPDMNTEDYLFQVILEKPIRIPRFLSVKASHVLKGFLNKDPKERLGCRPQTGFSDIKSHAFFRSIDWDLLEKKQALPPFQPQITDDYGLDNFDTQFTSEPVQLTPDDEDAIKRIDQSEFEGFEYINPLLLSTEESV

## COc1ccc2c(c1)c(C1=C(c3c[nH]c4ccccc34)C(=O)NC1=O)cn2CCCN(C)C
PRKG2 (human)
  residual activity: 60.7%
MAP3K9 (human)
  residual activity: 57.6%
PRKCZ (human)
  residual activity: 78.2%
ACVR1 (human)
  residual activity: 98%
MAP3K5 (human)
  residual activity: 95.1%
CDK6 CCND1 (human)
  residual activity: 64%
CDK9 CCNK (human)
  residual activity: 54.6%
MAPKAPK3 (human)
  residual activity: 92.3%
NEK6 (human)
  residual activity: 101%
NEK7 (human)
  residual activity: 99.1%
CDK2 CCNE1 (human)
  residual activity: 97.9%
DYRK4 (human)
  residual activity: 97.3%
ERBB4 (human)
  residual activity: 93.4%
TGFBR1 (human)
  residual activity: 101%
CAMK2G (human)
  residual activity: 91.1%
WNK3 (human)
  residual activity: 92%
FGFR4 (human)
  residual activity: 79.2%
DYRK1B (human)
  residual activity: 80%
PDGFRA (human)
  residual activity: 85.2%
TBK1 (human)
  residual activity: 90.7%
CSF1R (human)
  residual activity: 92.8%
NUAK1 (human)
  residual activity: 32.2%
PLK1 (human)
  residual activity: 104%
ADRBK2 (human)
  residual activity: 96.3%
CHEK2 (human)
  residual activity: 38.8%
PRKCA (human)
  residual activity: 3.14%
[1]
  residual activity: 4.5%
NEK3 (human)
  residual activity: 98.3%
CDK3 CCNE1 (human)
  residual activity: 78.8%
NEK4 (human)
  residual activity: 90.7%
PHKG2 (human)
  residual activity: 98.3%
PTK6 (human)
  residual activity: 92%
MAP4K2 (human)
  residual activity: 56.3%
TTK (human)
  residual activity: 89.9%
GSK3B (human)
  residual activity: 32%
GRK7 (human)
  residual activity: 106%
ADRBK1 (human)
  residual activity: 99%
LRRK2 (human)
  residual activity: 87%
EPHA8 (human)
  residual activity: 102%
SRMS (human)
  residual activity: 95.9%
MAPK10 (human)
  residual activity: 88.8%
PRKCB1 (human)
  residual activity: 19.3%

## CCCCc1c(-c2ccc(OC)cc2)[nH]c2nccnc12
PRKG2 (human)
  residual activity: 93.9%
MAP3K9 (human)
  residual activity: 39.8%
PRKCZ (human)
  residual activity: 93.9%
ACVR1 (human)
  residual activity: 86.9%
MAP3K5 (human)
  residual activity: 95%
CDK6 CCND1 (human)
  residual activity: 54.8%
CDK9 CCNK (human)
  residual activity: 56.9%
MAPKAPK3 (human)
  residual activity: 98.6%
NEK6 (human)
  residual activity: 111%
NEK7 (human)
  residual activity: 107%
CDK2 CCNE1 (human)
  residual activity: 42.1%
DYRK4 (human)
  residual activity: 97.7%
ERBB4 (human)
  residual activity: 109%
TGFBR1 (human)
  residual activity: 95%
CAMK2G (human)
  residual activity: 107%
WNK3 (human)
  residual activity: 88.4%
FGFR4 (human)
  residual activity: 92.5%
DYRK1B (human)
  residual activity: 94.5%
PDGFRA (human)
  residual activity: 90.3%
TBK1 (human)
  residual activity: 81.4%
CSF1R (human)
  residual activity: 37.7%
NUAK1 (human)
  residual activity: 25%
PLK1 (human)
  residual activity: 104%
ADRBK2 (human)
  residual activity: 95.6%
CHEK2 (human)
  residual activity: 72.8%
PRKCA (human)
  residual activity: 92.7%
[1]
  residual activity: 107%
NEK3 (human)
  residual activity: 99.1%
CDK3 CCNE1 (human)
  residual activity: 83.8%
NEK4 (human)
  residual activity: 81.3%
PHKG2 (human)
  residual activity: 106%
PTK6 (human)
  residual activity: 30.4%
MAP4K2 (human)
  residual activity: 65.1%
TTK (human)
  residual activity: 87.9%
GSK3B (human)
  residual activity: 70.2%
GRK7 (human)
  residual activity: 94.1%
ADRBK1 (human)
  residual activity: 78.5%
LRRK2 (human)
  residual activity: 83%
EPHA8 (human)
  residual activity: 103%
SRMS (human)
  residual activity: 96.7%
MAPK10 (human)
  residual activity: 97.2%
PRKCB1 (human)
  residual activity: 99.4%
